Here are results for one molecule from patent US20190083462A1, “PREVENTION OF NSAID ENTEROPATHY WITH MICROBIOTA-DERIVED TRYPTOPHAN-METABOLITE” (THE TEXAS A&M UNIVERSITY SYSTEM, priority 2016, published 2019).

One test relates to C57BL/6J mice. In words: Fecal calprotectin ELISA. The test is classed as in vivo. Particulars: feces, day 6 vs day 0; once daily gavage. The method, then: Eight- to 10-week-old specific-pathogen-free C57BL/6J mice were purchased and allowed to acclimate for 2 weeks. Mice were fed standardized laboratory rodent diet and sterile water ad libitum. […] Mice were then rehoused on the basis of treatment group assignment, with 5 animals/group-cage. To induce NSAID enteropathy, mice in group 1 were gavaged once daily with indomethacin (5 mg/kg; for 7 days; Sigma Aldrich, St. Louis, Mo.) dissolved in dimethylysulfoxide (DMSO) (Sigma Aldrich, St. Louis, Mo.) and further diluted in phosphate buffered saline (PBS). […] Sigma Aldrich, St. Louis, Mo.) dissolved in sterile water warmed to 55° C. […] All mice were gavaged with equal volumes (200 μL) and equal concentrations of DMSO (0.001%). Feces were collected daily by placing individual animals in sterile plastic cups that were RNase- and DNase-free until they passed feces. The mice were immediately returned to their home cages and the feces immediately flash frozen at -80° C. All animals were euthanized via CO2 asphyxiation on day 8 (i.e., after 7 days of treatment). […] Life Technologies, Carlsbad, Calif.), homogenized, and prepared as a single cell suspension for flow cytometric analysis as previously described (Wang […]. Measuring bacterial load and immune responses in mice infected with Listeria monocytogenes. Journal of Visualized Experiments: JoVE 2011). […]

Test [1] has as its system fecal tryptophan metabolites. In words: Fecal tryptophan metabolites by LC-MS. The class given is in vivo, mice. Particulars: for Magnitude of change in fecal concentration between Days 0 and 7: group effect ↑. An excerpt:
(§1) Eight- to 10-week-old specific-pathogen-free C57BL/6J mice were purchased and allowed to acclimate for 2 weeks. Mice were fed standardized laboratory rodent diet and sterile water ad libitum. Mice were randomly divided into the following 4 groups (n=5 mice/group): 1) NSAID (indomethacin); 2) indole; 3) NSAID+indole; and, 4) untreated controls. Mice were then rehoused on the basis of treatment group assignment, with 5 animals/group-cage. To induce NSAID enteropathy, mice in group 1 were gavaged once daily with indomethacin (5 mg/kg; for 7 days; Sigma Aldrich, St. Louis, Mo.) dissolved in dimethylysulfoxide (DMSO) (Sigma Aldrich, St. Louis, Mo.) and further diluted in phosphate buffered saline (PBS). Mice in group 2 received indole by gavage (20 mg/kg; once daily for 7 days; Sigma Aldrich, St. Louis, Mo.) dissolved in sterile water warmed to 55° C. Mice in group 3 received indole co-administered with indomethacin by gavage at the dosages described above. All mice were gavaged with equal volumes (200 μL) and equal concentrations of DMSO (0.001%).
Feces were collected daily by placing individual animals in sterile plastic cups that were RNase- and DNase-free until they passed feces. The mice were immediately returned to their home cages and the feces immediately flash frozen at −80° C. All animals were euthanized via CO2 asphyxiation on day 8 (i.e., after 7 days of treatment). The small intestine was harvested, opened longitudinally, rinsed with ice-cold PBS, and the distal ⅓ of the intestinal mucosa was scraped for tissue gene expression analysis. The remaining small intestine was fixed in 4% paraformaldehyde, Swiss-rolled, paraffin-embedded, and stained with hematoxylin and eosin. The spleen and mesenteric lymph nodes (MLN) were harvested, and immediately placed in ice cold RPMI-1640-c+10% fetal calf serum (FCS: Life Technologies, Carlsbad, Calif.), homogenized, and prepared as a single cell suspension for flow cytometric analysis as previously described (Wang N, Strugnell R, Wijburg O, Brodnicki T. Measuring bacterial load and immune responses in mice infected with Listeria monocytogenes. Journal of Visualized Experiments: JoVE 2011).
Metabolites from the fecal contents were extracted using a solvent-based method as previously described (Sridharan G V, Choi K, Klemashevich C, Wu C, Prabakaran D, Pan L B, Steinmeyer S, Mueller C, Yousofshahi M, Alaniz R C, et al. Prediction and quantification of bioactive microbiota metabolites in the mouse gut. Nature Communications 2014; 5:5492). Briefly, fecal pellets were homogenized using a homogenizer (Omni International) with equal volume of cold methanol and half volume of chloroform. The samples were then centrifuged at 10,000 g at 4° C. (Thermo Fisher Scientific) for 10 min. Supernatant was passed through a 70-μm sterile nylon cell strainer (Falcon) and 0.6 ml of ice cold water was added. The samples were vortex and centrifuged again at 10,000 g for 5 minutes. The upper phase and lower phase were collected and 400 μl of upper phase was dried to a pellet using a vacufuge (Eppendorf, Hauppauge, N.Y.), and then reconstituted in 50 μl of methanol/water (1:1, v/v). The samples were stored at −80° C. until analysis. Tryptophan metabolites in the samples were detected and quantified on a triple quadrupole linear ion trap mass spectrometer (3200 QTRAP, AB SCIEX, Foster City, Calif.) coupled to a binary pump HPLC (Prominence LC-20, Shimazu, Concord, Ontario, Canada).

In the next test the test system is small intestinal mucosa. In words: RNA sequencing (RNA-Seq) of the distal small intestinal mucosa. The class given is in vivo, mice.
Text: as §1
Feces were collected daily by placing individual animals in sterile plastic cups that were RNase- and DNase-free until they passed feces. The mice were immediately returned to their home cages and the feces immediately flash frozen at −80° C. […]
RNA was extracted from the mucosal scrapings using an RNeasy mini kit (QIAGEN, Redwood City, Calif.) following the manufacturer's instructions and including on-column DNase treatment. RNA quantity was determined using a Nanodrop spectrophotometer (Fisher Thermoscientific) and the quality was assessed using the Nano6000 chip on a Bioanalyzer 2100(Agilent Technologies). […] Differentially expressed genes were determined using EdgeR based on the matrix of gene counts (Robinson M D, McCarthy D J, Smyth G K. edgeR: a Bioconductor package for differential expression analysis of digital gene expression data. Bioinformatics (Oxford, England) 2010; 26:139-40). Gene lists were analyzed through use of QIAGEN's Ingenuity® Pathway Analysis (IPA, QIAGEN, Redwood City, Calif. http://www.qiagen.com/ingenuity). […]

Take `COc1ccc2c(c1)c(CC(=O)O)c(C)n2C(=O)c1ccc(Cl)cc1` [NSAID, indomethacin]: the fecal calprotectin levels result with C57BL/6J mice is reported as “significantly different from day 0 calprotectin”. Besides, the “Magnitude of change in fecal concentration between Days 0 and 7” value in test [1] (5-Hydroxyindole) was found to be 27.2; in test [1] (5-Hydroxytryptamine), 13.9; in test [1] (Indole), 6.7; in test [1] (Serotonin), 1.6; in test [1] (Tyramine), 6.7. Besides, the “fecal indole concentrations relative to controls” value in test [1] (feces) was “significantly more indole”. Moreover, the “tyramine fecal concentration by treatment group” value in test [1] (feces) was “significant increase”. The “NF-κB signaling pathway activation” value in the test on small intestinal mucosa (RNA-Seq pathway analysis of mucosal scrapings) is recorded as “activated”. Further, the “transcription of pro-inflammatory cytokines (IL-1α, IL-1β, TNF, IL-6) and chemokines (CXCL1, CXCL3, CXCL2, CXCL5, CCL2, CCL7)” value with small intestinal mucosa (small intestinal mucosal transcriptome after 7 days, vs control mice) was “significantly up-regulated”.
